# Data as given in patent US20040110821A1, “GAL3 receptor antagonists for the treatment of affective disorders” (priority 2002, published 2004).
# How the values were obtained:
# DA transporter = molecular target: T1, DA transporter (Rattus norvegicus, UniProt P23977); assay: Binding at native DA transporter; settings: read-out: rDA Uptk Ki
# T1 construct: native, tissue-derived transporters; from tissue
# Experimental: (§1) The methods to determine binding affinity at native transporters are described in the following publications: 5HT transporter and NE transporter (Owens et al., 1997), and DA transporter (Javitch et al, 1984).
# (§2) Binding data were analyzed using nonlinear regression and statistical techniques available in the GraphPAD Prism package (San Diego, Calif.). Enzymatic assay data were derived from a standard curve of reference compound data.
# human 5HT1B receptor = molecular target: T2, human 5HT1B receptor (Homo sapiens, UniProt P28222); assay: Radioligand binding at human 5HT1B receptor; settings: read-out: h5HT1B Ki
# T2 construct: expressed in transfected cells
# Experimental: Human 5HT1B, 5HT1D, 5HT1E, 5HT1F, and 5HT7 ReceDtors: The cell lysates of LM(tk-) clonal cell line stably transfected with the genes encoding each of these 5HT receptor-subtypes were prepared as described above. Cell membranes were suspended in 50 mM Tris-HCl buffer (pH 7.4 at 37° C.) containing 10 mM MgCl2, 0.2 mM EDTA, 10 µM pargyline, and 0.1% ascorbate. […] Nonspecific binding was determined in the presence of 10 μM serotonin. The bound radioligand was separated by filtration through GF/B filters using a cell harvester.
# as §2
# 5HT transporter = molecular target: T3, 5HT transporter (Rattus norvegicus, UniProt P31652); assay: Binding at native 5HT transporter; settings: read-out: r5HT Uptk Ki
# T3 construct: native, tissue-derived transporters; from tissue
# Experimental: as §1, §2
# [1] = molecular target: T4, Monoamine Oxidase A (central) (Rattus norvegicus, UniProt P21396); assay: Central Monoamine Oxidase A Enzyme Assay; format: biochemical; settings: rat brain as enzyme source
# T4 construct: Rat brain was used as the enzyme source; tissue NovaScreen (Hanover, Md.) performed the assay; host or cells: rat brain
# Experimental: The methods to determine activity at monoamine oxidase enzymes (for example, central MAOA and MAOB) are described by Otsuka and Kobayashi, 1964, and were performed by NovaScreen (Hanover, Md.) with the following modifications.
# Central Monoamine Oxidase A Enzyme Assay: Rat brain was used as the enzyme source. The enzyme source was pre-incubated with reference compound (RO 41-1049), test compound (Example 92), and subtype selective blocker (100 nM deprenyl) for 60 minutes at 37° C. in 50 mM KPO4 containing 50 μM EDTA and 10 μM dithiothreitol (pH 7.2 at 25° C.). Substrate ([^14C]Serotonin, […]) was then added and incubated for 30 minutes. The reaction was stopped by the addition of 0.5 ml of 1-2M citric acid. Radioactive product was extracted into xylene/ethyl acetate fluor and compared to control values by scintillation spectrophotometry in order to ascertain any interactions of test compound with central MAOA.
# as §2
# human GAL2 receptor = molecular target: T5, human GAL2 receptor (Homo sapiens, UniProt O43603); assay: Radioligand binding at cloned human GAL2 receptor; settings: indolones, Table 4, read-out: Ki (nM) GalR 2
# T5 construct: expressed in transfected cells
# T5 sequence (O43603 1-387): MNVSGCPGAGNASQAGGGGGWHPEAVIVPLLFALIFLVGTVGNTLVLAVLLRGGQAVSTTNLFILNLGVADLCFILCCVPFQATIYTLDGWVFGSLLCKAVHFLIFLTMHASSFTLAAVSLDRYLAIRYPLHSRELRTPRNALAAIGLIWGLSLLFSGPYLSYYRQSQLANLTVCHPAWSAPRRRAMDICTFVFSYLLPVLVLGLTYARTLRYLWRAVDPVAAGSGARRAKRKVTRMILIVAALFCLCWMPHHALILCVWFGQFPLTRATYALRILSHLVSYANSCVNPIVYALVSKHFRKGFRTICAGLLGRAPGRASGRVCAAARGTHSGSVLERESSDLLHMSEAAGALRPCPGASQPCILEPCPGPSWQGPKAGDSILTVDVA
# Experimental: The present invention provides for a method of determining the binding affinity of a GAL3 antagonist, wherein the GAL3 antagonist is dissolved in a “suitable solvent”. A “suitable solvent” means one which permits the measurement of binding affinity of the GAL3 antagonist to the human GAL3 receptor at concentrations less than 1 μM, preferably less than 100 nM. Examples of solvents include, but are not limited to, DMSO, ethanol, N,N-dimethylacetamide, or water. For indolones, the preferred solvent is 3% DMSO (final concentration in the assay). For pyrimidines, the preferred solvent is 1% ethanol/0.09% polypuronic acid F-127 (final concentration in the assay). For any other type of compounds, the preferred solvent is the solvent which permits the measurement of binding affinity of a GAL3 antagonist at the lowest concentration. Once a suitable solvent is ascertained for the binding assay of the human GAL3 receptor, the same solvent is used in assays to determine the binding affinity for instance, at the GAL1 receptor.
# The binding properties of the pyrimidines of the present invention were evaluated at the cloned human galanin receptors, GAL1, GAL2, and GAL3, using protocols described herein.
# The binding properties of the indolones of the present invention were evaluated at the cloned human galanin receptors, GAL1, GAL2, and GAL3, using protocols described herein.
# LM(tk-) cells were stably transfected with the human GAL1 or GAL3 receptor. CHO cells were stably transfected with the human GAL2 receptor.
# cDNAs for the human and rat GAL1, and human and rat GAL3 receptors were transfected with a G-418 resistant gene into the mouse fibroblast LM(tk-) cell line by a calcium phosphate transfection method (Cullen, 1967). Stably transfected cells were selected with G-418. Human and rat GAL2 receptors were similarly transfected into CHO cells.
# Membranes were harvested from stably transfected LM(tk-) cells. Adherent cells were washed twice in ice-cold phosphate buffered saline (138 mM NaCl, 8.1 mM Na2HPO4, 2.5 mM KCl, 1.2 mM KH2PO4, 0.9 mM CaCl2, 0.5 mM MgCl2, pH 7.4) and lysed by sonication in ice-cold sonication buffer (20 mM Tris-HCl, 5 mM EDTA, pH 7.7). Large particles and debris were cleared by low speed centrifugation (200×g, 5 min, 4° C.). Membranes were collected from the supernatant fraction by centrifugation (32,000×g, 18 min, 4° C.), washed with ice-cold hypotonic buffer, and collected again by centrifugation (32,000×g, 18 min, 4° C.). The final membrane pellet was resuspended by sonication into a small volume of ice-cold binding buffer (−1 ml for every 5 plates: 10 mM NaCl, 20 mM HEPES, 0.22 mM KH2PO4, 1.26 mM CaCl2, 0.81 mM MgSO4, pH 7.4). Protein concentration was measured by the Bradford method (Bradford, 1976) using Bio-Rad Reagent, with bovine serum albumin as a standard. Membranes were held on ice for up to one hour and used fresh, or flash frozen and stored in liquid nitrogen. Membranes were prepared similarly from CHO cells.
# Galanin Receptors: Binding assays were performed according to the following published methods: human GAL3 (PCT International Publication No. WO 98/15570), human GAL1 (PCT International Publication No. WO 95/2260) human GAL2 (PCT International Publication No. WO 97/26853).
# as §2
# T1 sequence (P23977 whole entry): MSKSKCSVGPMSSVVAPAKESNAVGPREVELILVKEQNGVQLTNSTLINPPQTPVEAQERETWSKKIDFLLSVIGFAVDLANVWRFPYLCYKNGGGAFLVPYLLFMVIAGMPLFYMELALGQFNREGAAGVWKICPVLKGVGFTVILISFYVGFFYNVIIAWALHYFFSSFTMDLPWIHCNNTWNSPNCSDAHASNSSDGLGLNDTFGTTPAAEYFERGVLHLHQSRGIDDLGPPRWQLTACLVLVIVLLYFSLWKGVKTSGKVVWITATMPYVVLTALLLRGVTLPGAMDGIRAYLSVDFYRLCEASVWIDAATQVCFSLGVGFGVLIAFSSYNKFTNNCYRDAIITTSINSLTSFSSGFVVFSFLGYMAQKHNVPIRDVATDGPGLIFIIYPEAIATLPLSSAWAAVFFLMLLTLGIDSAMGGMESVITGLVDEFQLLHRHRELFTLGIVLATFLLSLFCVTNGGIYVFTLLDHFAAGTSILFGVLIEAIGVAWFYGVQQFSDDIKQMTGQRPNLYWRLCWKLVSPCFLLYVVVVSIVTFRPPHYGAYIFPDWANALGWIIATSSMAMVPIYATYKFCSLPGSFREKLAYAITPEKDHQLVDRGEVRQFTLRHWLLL
# T2 sequence (P28222 whole entry): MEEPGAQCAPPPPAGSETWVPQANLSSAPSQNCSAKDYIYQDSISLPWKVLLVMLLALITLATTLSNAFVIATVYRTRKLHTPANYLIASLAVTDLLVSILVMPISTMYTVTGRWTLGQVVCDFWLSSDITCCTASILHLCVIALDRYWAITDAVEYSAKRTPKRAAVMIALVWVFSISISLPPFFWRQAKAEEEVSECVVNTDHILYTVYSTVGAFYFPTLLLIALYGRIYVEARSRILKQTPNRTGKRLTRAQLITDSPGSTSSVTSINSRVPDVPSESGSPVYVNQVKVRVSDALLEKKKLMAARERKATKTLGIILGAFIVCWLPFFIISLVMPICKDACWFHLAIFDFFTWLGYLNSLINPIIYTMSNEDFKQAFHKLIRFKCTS
# T4 sequence (P21396 whole entry): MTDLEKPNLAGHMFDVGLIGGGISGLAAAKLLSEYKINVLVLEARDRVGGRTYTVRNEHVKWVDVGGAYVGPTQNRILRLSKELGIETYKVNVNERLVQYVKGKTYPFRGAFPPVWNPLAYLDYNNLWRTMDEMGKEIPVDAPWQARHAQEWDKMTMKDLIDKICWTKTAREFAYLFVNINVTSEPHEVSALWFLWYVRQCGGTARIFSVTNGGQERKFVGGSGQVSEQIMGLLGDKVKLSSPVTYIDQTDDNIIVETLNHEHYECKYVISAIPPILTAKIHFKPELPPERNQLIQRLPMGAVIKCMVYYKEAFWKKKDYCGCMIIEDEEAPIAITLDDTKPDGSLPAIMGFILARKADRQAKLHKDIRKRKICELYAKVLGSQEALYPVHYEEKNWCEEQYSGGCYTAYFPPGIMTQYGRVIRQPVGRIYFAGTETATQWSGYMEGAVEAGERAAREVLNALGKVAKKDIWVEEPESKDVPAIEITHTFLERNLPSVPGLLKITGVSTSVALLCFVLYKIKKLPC
# T3 sequence (P31652 whole entry): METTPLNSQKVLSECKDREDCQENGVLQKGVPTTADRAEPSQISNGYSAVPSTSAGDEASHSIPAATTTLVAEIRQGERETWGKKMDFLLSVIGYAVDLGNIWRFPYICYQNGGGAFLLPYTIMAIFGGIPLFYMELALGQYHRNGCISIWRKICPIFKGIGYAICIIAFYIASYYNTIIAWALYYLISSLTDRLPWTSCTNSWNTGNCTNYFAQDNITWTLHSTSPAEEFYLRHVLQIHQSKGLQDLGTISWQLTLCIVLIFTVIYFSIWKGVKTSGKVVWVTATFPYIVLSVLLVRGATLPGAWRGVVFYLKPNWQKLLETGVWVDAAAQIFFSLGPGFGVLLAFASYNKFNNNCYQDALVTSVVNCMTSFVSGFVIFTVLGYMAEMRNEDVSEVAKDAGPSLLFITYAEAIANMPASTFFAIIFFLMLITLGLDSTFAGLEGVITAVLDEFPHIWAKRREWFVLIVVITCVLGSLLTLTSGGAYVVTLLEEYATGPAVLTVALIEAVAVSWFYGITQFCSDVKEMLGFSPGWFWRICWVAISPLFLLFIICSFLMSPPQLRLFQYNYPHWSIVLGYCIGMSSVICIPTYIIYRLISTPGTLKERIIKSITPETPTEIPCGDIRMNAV
compound,measurement,setting,value
"O=C1C(=Nc2cccc(C(F)(F)F)c2)c2ccccc2N1c1ccccc1 [Example 92, 1-PHENYL-3-[[3-(TRIFLUOROMETHYL)PHENYL]IMINO]-1,3-DIHYDRO-2H-INDOL-2-ONE]",Ki,DA transporter,17.8 µM
same,Ki,human 5HT1B receptor,11.3 µM
same,Ki,5HT transporter,45.1 µM
same,% INHIBITION,[1],10%
same,Ki,human GAL2 receptor,> 10000 nM
